The results in this text go back to patent US11584727B2, “2-thioxothiazolidin-4-one derivatives active as transthyretin ligands and uses thereof” (BSIM Therapeutics, S.A., priority 2014, dated 2023).

Data set [1] has as its target Val122Ile transthyretin (V122I-TTR) (Homo sapiens, UniProt P02766, V142I). The data set is described as follows: V122I-TTR amyloid fibril formation assay (turbidimetry, acid-induced). As to conditions: pH 4.4, 72 hours; for Fibril Formation (%): V122I-TTR 3.6 μM, 37° C. Type of data set: biochemical.
Data set [2] in a line: HepG2 cell viability, resazurin reduction assay. Type of data set: cell-based. As to conditions: human, HepG2 hepatoma cells, approximately 72 hours incubation, read-out: inhibitory dose (ID50), cell viability. From the text:
Cell viability of HepG2 hepatoma cells was quantified in order to assess the toxicity of the compounds at increasing concentrations. The used assay is described in detail in the “Experimental Evaluation of Cytotoxicity of Compounds using Cell-based Assays” section in “Materials and Methods”. This is a relevant assessment not just to discard potential concerns of liver damage (which is a problem reported for many drugs) but also because of the long-term nature of the treatments that patients suffering from TTR-mediated amyloidoses need to undertake.
Adherent human hepatoma cells HepG2 were cultured in DMEM (Dulbecco's Modified Eagle's Medium) with 10% fetal bovine serum (FBS), 100 U/mL penicillin, […] streptomycin, and 1 mM sodium pyruvate. The cells were grown in 75 cm^2 culture flasks at 37° C., in an atmosphere of 5% CO2, and subcultured twice a week using a trypsin-EDTA solution.
Upon 3 to 4 days of growth and reaching approximately 90% confluence, HepG2 cells were plated in 96-well microplates with cell density of 12×10^3 cells/well and in a volume of 100 μL per well.
The compounds are dissolved in DMSO and subsequently diluted in DMEM (in 9 intermediate […] concentrations). After adhesion of HepG2 cells to the microplates, […] 100 μL of each solution of intermediate compound concentration were added to each well (in quadruplicate). Positive controls were done with 10 wells containing only cells; solvent controls resulted from the analysis of the three highest DMSO concentrations tested and were carried out in triplicate.
After addition of the compounds to the cells, the microplates were incubated for approximately 72 hours at 37° C. in an atmosphere of 5% CO2 until the cell viability assay was performed.
The cell viability of HepG2 cells in the presence of test compounds was assessed by the resazurin reduction assay. Resazurin is a redox indicator that is converted into resorufin through reduction reactions of metabolically active cells. In the oxidized form it presents a purplish blue color, while the reduced form presents a purple-pink color.
A stock solution of 0.01% resazurin in PBS is diluted 1:10 in incomplete RPMI 1640 cell medium (without addition of antibiotics and FBS). After washing the cells with 200 μL PBS containing Ca^2+ and Mg^2+, 200 μL of resazurin 0.001% are added to the wells. Control runs with incomplete RPMI 1640 medium only and (without cells) are done in triplicate. […]
To quantify the reduction of resazurin to resorufin, microplate absorbance readings were taken at two wavelengths, 540 nm (reduced form) and 630 nm (oxidized form), in a Biotek spectrophotometer microplate reader. The percentage of viable cells at each compound concentration is determined using the formula: […]

Consider `O=C(O)c1ccc2nc(-c3cc(Cl)cc(Cl)c3)oc2c1` [Tafamidis, reference compound], for which, in data set [1], the “Fibril Formation (%)” value amounted to 49%. The IC50 at 72 h in data set [2] was around 250 µM.

Take `COc1cc(/C=C2\SC(=S)N(CC(=O)O)C2=O)cc(Cl)c1O` [AT50-A00 (Z), (Z)-3-hydroxycarbonylmethyl-5-(3′-chloro-4′-hydroxy-5′-methoxyphenylmethylidene)-2-thioxothiazolidin-4-one]: the “Fibril Formation (%)” value in data set [1] came to 52%. In data set [1] (V122I-TTR fixed at 3.6 μM, ten compound concentrations), this compound came in with an IC50 of 3.73 µM. Besides, in data set [2], the IC50 at 72 h is above 400 µM.
